From publication PMC4754833, “Rilpivirine analogs potently inhibit drug-resistant HIV-1 mutants” (Retrovirology, 2016)

What was measured:
[1] = tested on: HIV-1 RT mutant P236L; assay: single round infection assay, P236L; assay type: cell-based; settings: for IC50: Human immunodeficiency virus 1; for fold-change of IC50 of the mutant relative to WT: P236L vs WT
Experimental: (§1) The human osteosarcoma cell line, HOS, was obtained from Dr. Richard Schwartz (Michigan State University, East Lansing, MI) and grown in Dulbecco’s modified Eagle’s medium (Invitrogen, Carlsbad, CA) supplemented with 5 % (v/v) fetal bovine serum, 5 % newborn calf serum, and penicillin (50 units/ml) plus streptomycin (50 µg/ml; Quality Biological, Gaithersburg, MD). Virion production and single-round infectivity assays were used to determine antiviral activity (IC50 values) of the compounds as previously described.
(§2) pNLNgoMIVR-ΔEnv.LUC has been described previously. The RT open reading frame was removed from pNLNgoMIVR-ΔEnv.LUC (digestion with SpeI and SalI) and inserted between the SpeI and SalI sites of pBluescript II KS+. Using that construct as the wild-type template, we prepared the following HIV-1 RT mutants using the QuikChange II XL (Stratagene, La Jolla, CA) site-directed mutagenesis protocol kit: L100I, K103N, Y181C, Y188L, H221Y, K103N/Y181C, G190A, G190S, M230L, P236L, L100I/K103N, K103N/P225H, V106A/G190A/F227L, V106A, L234I, V106A/F227L, V106A/L234I, V106A/F227L/L234I, E40K, D67E, K101E, V111A, E138K, M184I, M184V, K101E/M184I, K101E/M184V, E138K/M184I, E138K/M184V, K101P, Y181I, and K101P/V179I. The following sense oligonucleotides were used with matching cognate antisense oligonucleotides (not shown) (Integrated DNA Technologies, Coralville, IA) in the mutagenesis: L100I, 5′-[…]-3′; L100I 2-103, 5′-[…]-3′; K103N, 5′-[…]-3′; Y181C, 5′-[…]-3′; Y188L, 5′-[…]-3′; H221Y, 5′-[…]-3′; G190A, 5′-[…]-3′; G190S, 5′-[…]-3′; P225H, 5′-[…]-3′; F227, 5′-[…]-3′; M230L, 5′-[…]-3′; P236L, 5′-[…]-3′; V106A, 5′-[…]-3′; L234I, 5′-[…]-3′; E40K, 5′-[…]-3′; D67E, 5′-[…]-3′; K101E, 5′-[…]-3′; V111A, 5′-[…]-3′; E138K, 5′-[…]-3′; M184I, 5′-[…]-3′; M184V, 5′-[…]-3′; K101P, 5′-[…]-3′; Y181I, 5′-[…]-3′; K101P/V179I, 5′-[…]-3′. The double mutants K103N/Y181C, K103N/P225H, and L100I/K103N were made using the previously generated K103N mutant and the appropriate oligonucleotides to add the second mutation, Y181C, P225, and L100I respectively. The double mutants V106A/F227L and V106A/L234I were prepared using the previously generated V106A mutant and the appropriate oligonucleotides to add the second mutation, F227L and L234I, respectively. The double mutants K101E/M184I and K101E/M184V were constructed using the previously generated K101E mutant and the appropriate oligonucleotides to add the second mutation, M184I and M184V, respectively. The double mutants E138K/M184I and E138K/M184V were constructed using the previously generated E138K mutant and the appropriate oligonucleotides for the second mutation, M184I and M184V, respectively. The triple mutant V106A/F227L/L234I was made using the previously generated V106A/F227L double mutant and the appropriate oligonucleotides for the third mutation, L234I. The triple mutant V106A/G190A/F227L was constructed in a series of steps using the previously generated V106A mutant and the appropriate oligonucleotides for the second mutation, G190A, to generate the double mutant V106A/G190A, and then the triple mutant was made using double mutant V106A/G190A and oligonucleotides for the third mutation, F227L. The DNA sequence of each construct was verified by DNA sequence determination. The sequences encoding the mutant RTs were then subcloned into pNLNgoMIVR-ΔEnv.LUC (between the KpnI and SalI sites) to produce the mutant HIV-1 constructs. These DNA sequences were also checked independently by DNA sequence determination.
(§3) 10.1186/s12977-016-0244-2 The IC50 values (nM) of RPV and the RPV analogs were determined against the NNRTI resistant mutants were measured by using a single round infection assay, n = 4. The concentrations (nM) are measured by reductions in luciferase reporter activity followed by the standard deviations. […]

[2] = tested on: HIV-1 RT mutant H221Y; parameters: method as in PMID 23217210; settings: previous study; cited from earlier work
[3] = tested on: HIV-1 RT mutant D67E; assay: single round infection assay, D67E; assay type: cell-based; settings: for fold-change of IC50 of the mutant relative to WT: D67E vs WT; for IC50: ± SD, n=4
Experimental: as §1, §2, §3

[4] = tested on: HIV-1 RT mutant K103N/P225H; assay: single round infection assay, K103N/P225H; assay type: cell-based; settings: for IC50: Human immunodeficiency virus 1; for fold-change of IC50 of the mutant relative to WT: K103N/P225H vs WT
Experimental: as §1, §2, §3

[5] = tested on: HIV-1 RT mutant E40K; assay: single round infection assay, E40K; assay type: cell-based; settings: for fold-change of IC50 of the mutant relative to WT: E40K vs WT
Experimental: as §1, §2, §3

[6] = tested on: HIV-1 RT mutant V106A; assay: single round infection assay, V106A; assay type: cell-based; settings: for fold-change of IC50 of the mutant relative to WT: V106A vs WT; for IC50: ± SD, n=4
Experimental: as §1, §2, §3

[7] = tested on: HIV-1 RT mutant K101P/V179I; assay: single round infection assay, K101P/V179I; assay type: cell-based; settings: for IC50: Human immunodeficiency virus 1
Experimental: as §1, §2, §3

[8] = tested on: HIV-1 RT mutant L100I/K103N; assay: single round infection assay, L100I/K103N; assay type: cell-based; settings: for fold-change of IC50 of the mutant relative to WT: L100I/K103N vs WT; for IC50: ± SD, n=4, limit of detection 100 nM
Experimental: as §1, §2, §3

[9] = tested on: HIV-1 RT mutant L100I; parameters: method as in PMID 23217210; settings: previous study; cited from earlier work
[10] = tested on: HIV-1 RT mutant V106A/G190A/F227L; assay: single round infection assay, V106A/G190A/F227L; assay type: cell-based; settings: for IC50: Human immunodeficiency virus 1; for fold-change of IC50 of the mutant relative to WT: V106A/G190A/F227L vs WT
Experimental: as §1, §2, §3

[11] = tested on: HIV-1 RT mutant K101E; assay: single round infection assay, K101E; assay type: cell-based; settings: for IC50: ± SD, n=4; for fold-change of IC50 of the mutant relative to WT: K101E vs WT
Experimental: as §1, §2, §3

[12] = tested on: HIV-1 RT mutant V106A/F227L/L234I; assay: single round infection assay, V106A/F227L/L234I; assay type: cell-based; settings: for IC50: ± SD, n=4; for fold-change of IC50 of the mutant relative to WT: V106A/F227L/L234I vs WT
Experimental: as §1, §2, §3

[13] = Human immunodeficiency virus 1, K101E
[14] = Human immunodeficiency virus 1, D67E
[15] = Human immunodeficiency virus 1, V106A (selected by DOR)
[16] = Human immunodeficiency virus 1, L100I/K103N
[17] = Human immunodeficiency virus 1, V106A/F227L/L234I (selected by DOR)
[18] = V106A/F227L/L234I (selected by DOR)

SMILES | IC50 [1] [nM] | IC50 [2] [nM] | fold-change of IC50 of the mutant relative to WT [3] | IC50 [4] [nM] | fold-change of IC50 of the mutant relative to WT [4] | fold-change of IC50 of the mutant relative to WT [5] | fold-change of IC50 of the mutant relative to WT [6] | IC50 [7] [nM] | fold-change of IC50 of the mutant relative to WT [8] | IC50 [9] [nM] | IC50 [10] [nM] | fold-change of IC50 of the mutant relative to WT [10] | IC50 [11, 13] [nM] | fold-change of IC50 of the mutant relative to WT [11] | IC50 ([11]; K101E) [nM] | fold-change of IC50 of the mutant relative to WT [1] | IC50 ([3]; D67E) [nM] | IC50 [3, 14] [nM] | IC50 [8, 16] [nM] | fold-change of IC50 of the mutant relative to WT [12] | further results
Cc1cc(/C=C/C#N)cc(C)c1Nc1ccnc(Nc2ccc(C#N)cc2)n1 [RPV, rilpivirine] | 0.2 | < 7 | 3 | 0.6 ± 0.2 | 3 | < 2 | < 2 | 93.5 ± 12.1 | 10 | < 7 | 0.5 ± 0.02 | 2 | < 2.5 | 11 | 2.6 ± 1.6 | – | – | – | – | – | fold-change of IC50 of the mutant relative to WT ([7]; K101P/V179I vs WT): 390
Cc1cc(/C=C/C#N)cc(C)c1Nc1ncc(N)c(Nc2ccc(C#N)cc2)n1 [compound 9] | 1.7 ± 0.7 | < 7 | 3 | 4.6 ± 0.3 | 4 | 2 | < 2 | > 100 | 34 | < 7 | 4.6 ± 0.3 | 4 | < 6 | 3 | 4.1 ± 1.5 | < 2 | 4.2 ± 0.8 | < 6 | 44.1 | 5 | IC50 [6, 15]: < 5 nM; IC50 ([6]; V106A (selected by DOR)): 2.5 ± 1.2 nM; IC50 [12, 17]: < 5 nM; IC50 [12, 18]: 6.4 ± 1.8 nM
COc1ccc(Cn2cnc3c(Nc4ccc(C#N)cc4)nc(Nc4c(C)cc(/C=C/C#N)cc4C)nc32)cc1 [compound 12] | 0.8 ± 0.2 | < 7 | 43 | 3 ± 0.4 | 4 | < 2 | < 2 | > 100 | 6 | < 7 | 5.9 ± 0.14 | 9 | 3.3 ± 0.3 | 5 | – | < 2 | – | 29 ± 6.9 | < 5.4 | < 2 | IC50 ([5]; Human immunodeficiency virus 1, E40K, ± SD, n=4): 1 ± 0.04 nM; IC50 ([8]; L100I/K103N): 4.3 ± 2.6 nM
CC(=O)c1ccc(Nc2nc(Nc3c(C)cc(/C=C/C#N)cc3C)nc3[nH]cnc23)cc1 [compound 14] | 0.15 ± 0.05 | < 7 | 4 | 0.92 ± 0.14 | 2 | < 2 | 10 | > 100 | 31 | < 7 | 0.9 ± 0.18 | 2 | < 2.5 | 4 | 1.7 ± 0.5 | – | 1.7 ± 0.21 | < 2.5 | 12.6 | 7 | IC50 [6, 15]: < 5 nM; IC50 ([6]; V106A (selected by DOR)): 4.3 ± 0.5 nM; IC50 [12, 17]: < 5 nM; IC50 [12, 18]: 2.7 ± 0.64 nM
COc1ccc(Nc2nc(Nc3c(C)cc(/C=C/C#N)cc3C)nc3[nH]cnc23)cc1 [compound 16] | 0.2 | < 7 | 16 | 2.7 ± 0.07 | 16 | < 2 | 3 | > 100 | 11 | < 7 | 1.7 ± 0.2 | 10 | – | 5 | – | < 2 | 2.7 ± 0.8 | < 2.5 | – | 18 | IC50 [12, 17]: < 5 nM; IC50 [12, 18]: 3 ± 0.8 nM
